Literature values as cited in patent US20020099100A1, “Treatment of dry eye syndrome” (priority 2000, published 2002).

Tested on: dry eye syndrome
Details: in vivo

Substance: Vitamin A
- Underlying cellular changes that lead to dry eye syndrome: reverse many of the underlying cellular changes
